Patent US4709012A, “Novel inhibitor peptides” (Washington University, priority 1986, dated 1987)
Where no end group is shown, it is not given here.

Columns and labels:
Assay in all cases: Octapeptide substrate specificity / kinetic characterization with partially purified yeast myristoylating enzyme (Table II)
[1] = molecular target: T1, myristoylating enzyme from yeast (N-myristoylglycylpeptide synthetase) (Saccharomyces cerevisiae, UniProt P14743); format: biochemical; details: for Ki: inhibition of myristoylation of the substrate Gly-Asn-Ala-Ala-Ala-Ala-Arg-Arg
T1 construct: partially purified from a crude homogenate of the cultured yeast cells by fractionation with 51-70% (NH4)2 SO4; endogenous in cells; host or cells: S. cerevisiae strain JR153; ammonium sulfate cut, DEAE-Sepharose CL-6B, CoA-agarose
T1 sequence (P14743 1-455): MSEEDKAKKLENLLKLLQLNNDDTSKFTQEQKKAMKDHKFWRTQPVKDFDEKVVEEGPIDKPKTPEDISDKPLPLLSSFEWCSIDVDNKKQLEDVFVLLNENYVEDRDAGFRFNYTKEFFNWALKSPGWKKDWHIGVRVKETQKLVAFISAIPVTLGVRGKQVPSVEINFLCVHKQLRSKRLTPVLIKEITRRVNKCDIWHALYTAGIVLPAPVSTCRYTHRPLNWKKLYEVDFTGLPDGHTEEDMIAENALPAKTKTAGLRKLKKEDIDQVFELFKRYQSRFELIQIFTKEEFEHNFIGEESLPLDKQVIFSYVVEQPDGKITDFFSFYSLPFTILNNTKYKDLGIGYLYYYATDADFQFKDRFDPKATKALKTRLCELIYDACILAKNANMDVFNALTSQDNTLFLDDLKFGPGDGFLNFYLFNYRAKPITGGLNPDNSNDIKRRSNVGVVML
Experimental: (§1) The synthetic octapeptide Gly-Asn-Ala-Ala-Ala-Ala-Arg-Arg was initially used to identify a unique enzymatic activity which transfers myristic acid to the amino terminal glycine of this and other peptides. […] The enzyme activity was determined in an in vitro assay which measures the transfer of [^3 H]-myristic acid to the acceptor peptide. The transfer reaction is dependent on adenosine triphosphate (ATP) and coenzyme A (CoA). The enzymatic product was then identified by high performance liquid chromatography (HPLC) by co-elution with a chemically synthesized myristoyl peptide standard. […] Both contained M-myristoyl glycine.
(§2) [^3 H]Fatty acyl CoA was synthesized enzymatically and added to the incubation as follows. The acyl CoA synthetase reaction consisted of (per one assay tube): 0.5 μCi of [^3 H]myristic acid; 25 μl of 2X assay buffer (20 mM Tris, pH 7.4, 2 mM dithiothreitol, 10 mM MgCl2, 0.2 mM EGTA); 5 μl of 50 mM ATP in distilled water, adjusted to pH 7.0 with NaOH; […] in distilled water; 15 μl of lmU/μl of Pseudomonas acyl CoA synthetase (Sigma) in 50 mM N-2-hydroxyethylpiperazine-N'-2-ethane sulfonic acid, pH 7.3; 2.5 μl of distilled water. The reaction was allowed to proceed for 20 minutes at 30° C. Typically, 40% to 50% of the [^3 H]fatty acid was converted to its CoA ester by this procedure as measured by determining the radioactivity remaining in the reaction after acidification with 6 N HCl to pH 2.0 and extraction 6 times with 5 volumes of heptane, a modification of the method of Hosaka et al., Meth. Enzymol. 71, 325-333 (1981). Fifty microliters of this reaction were added to tubes containing 40 μl of assay extraction buffer (see above) and 10 μl of 1 mM GlyAsnAlaAlaAlaAlaArgArg. The assay was initiated by the addition of 10 μl of yeast cell extract (typically 50 μg of protein) per tube, followed by incubation at 30° C. for 10 min. The assay was terminated by the addition of 110 μl of methanol and 10 μl of 100% trichloracetic acid (w/v) per tube, followed by cooling ten minutes on ice. Precipitated protein was removed by centrifugation at 8000 x g for 3 minutes in a tabletop Eppendorf centrifuge. (Under these conditions, 95% of synthetic [^3 H]myristoylpeptide or [^3 H]palmitoylpeptide remined soluble when added to an assay mixture.) Fifty microliters of the supernatant were mixed with 75 μl methanol and 75 μl of HPLC buffer A, and analyzed by reverse phase HPLC on a 3.9 mm by 30 cm Waters μ-Bondapak C18 column using the same HPLC buffers described above, starting at 35% acetonitrile and eluting with a 1% per minute acetonitrile gradient. One minute fractions were collected and the radioactivity in each fraction determined by liquid scintillation counting. [^3 H]Myristoyl-GlyAsnAlaAlaAlaAlaArgArg eluted at 24 minutes, while [^3 H]palmitoyl-GlyAsnAlaAlaAlaAlaArgArg eluted at 30 minutes.
Several octapeptides illustrating the present invention were synthesized by the solid phase Merrifield procedure essentially as described in Example 1 and then tested for activity as substrates or inhibitors for the myristoylating enzyme from yeast (S. cerevisiae strain JR153). The octapeptide substrate specificity of the enzyme was tested under the assay conditions described in Example 2 but using 1 μCi of [^3 H]- myristic acid per assay tube. The yeast enzyme used in this example was partially purified from a crude homogenate of the cultured yeast cells by fractionation with 51-70% (NH4)2 SO4 followed by ion exchange column chromatography with DEAE-Sepharose® CL-6B (Pharmacia) and affinity chromatography with CoA-agarose affinity matrix (Pharmacia).

[2] = substrate: CC(C)C[C@H](NC(=O)CN)C(=O)N[C@@H](C)C(=O)N[C@@H](C)C(=O)N[C@@H](C)C(=O)N[C@@H](C)C(=O)N[C@@H](CCCNC(=N)N)C(=O)N[C@@H](CCCNC(=N)N)C(N)=O; format: biochemical, Saccharomyces cerevisiae; details: other: peptide as acyl acceptor, 1 μCi [3H]-myristic acid per tube, 30.0 °C
Experimental: as §1
as §2, with “The reaction was allowed to proceed for 20 minutes at 30° C.” left out, “Enzymol. 71, 325-333 (1981). Fifty microliters of this reaction were added to tubes containing 40 μl of assay extraction buffer (see above) and 10 μl of 1 mM GlyAsnAlaAlaAlaAlaArgArg. The assay was initiated by the addition of 10 μl of yeast cell extract (typically 50 μg of protein) per tube, followed by incubation at 30° C. for 10 min. The assay was terminated by the addition of 110 μl of methanol and 10 μl of 100% trichloracetic acid (w/v) per tube, followed by cooling ten minutes on ice. Precipitated protein was removed by centrifugation at 8000 x g for 3 minutes in a tabletop Eppendorf centrifuge.” left out, “[^3 H]Myristoyl-GlyAsnAlaAlaAlaAlaArgArg eluted at 24 minutes, while [^3 H]palmitoyl-GlyAsnAlaAlaAlaAlaArgArg eluted at 30 minutes.” left out

[3] = substrate: CC(C)[C@H](NC(=O)CN)C(=O)N[C@@H](C)C(=O)N[C@@H](C)C(=O)N[C@@H](C)C(=O)N[C@@H](C)C(=O)N[C@@H](CCCNC(=N)N)C(=O)N[C@@H](CCCNC(=N)N)C(N)=O; format: biochemical, Saccharomyces cerevisiae; details: other: peptide as acyl acceptor, 1 μCi [3H]-myristic acid per tube, 30.0 °C
Experimental: as §1
as §2, with “The reaction was allowed to proceed for 20 minutes at 30° C.” left out, “Enzymol. 71, 325-333 (1981). Fifty microliters of this reaction were added to tubes containing 40 μl of assay extraction buffer (see above) and 10 μl of 1 mM GlyAsnAlaAlaAlaAlaArgArg. The assay was initiated by the addition of 10 μl of yeast cell extract (typically 50 μg of protein) per tube, followed by incubation at 30° C. for 10 min. The assay was terminated by the addition of 110 μl of methanol and 10 μl of 100% trichloracetic acid (w/v) per tube, followed by cooling ten minutes on ice. Precipitated protein was removed by centrifugation at 8000 x g for 3 minutes in a tabletop Eppendorf centrifuge.” left out, “[^3 H]Myristoyl-GlyAsnAlaAlaAlaAlaArgArg eluted at 24 minutes, while [^3 H]palmitoyl-GlyAsnAlaAlaAlaAlaArgArg eluted at 30 minutes.” left out

[4] = substrate: C[C@H](NC(=O)[C@H](C)NC(=O)[C@H](C)NC(=O)[C@H](CC(N)=O)NC(=O)CN)C(=O)N[C@@H](C)C(=O)N[C@@H](CCCNC(=N)N)C(=O)N[C@@H](CCCNC(=N)N)C(N)=O; format: biochemical, Saccharomyces cerevisiae; details: other: peptide as acyl acceptor, 1 μCi [3H]-myristic acid per tube, 30.0 °C
Experimental: as §1
as §2, with “The reaction was allowed to proceed for 20 minutes at 30° C.” left out, “Enzymol. 71, 325-333 (1981). Fifty microliters of this reaction were added to tubes containing 40 μl of assay extraction buffer (see above) and 10 μl of 1 mM GlyAsnAlaAlaAlaAlaArgArg. The assay was initiated by the addition of 10 μl of yeast cell extract (typically 50 μg of protein) per tube, followed by incubation at 30° C. for 10 min. The assay was terminated by the addition of 110 μl of methanol and 10 μl of 100% trichloracetic acid (w/v) per tube, followed by cooling ten minutes on ice. Precipitated protein was removed by centrifugation at 8000 x g for 3 minutes in a tabletop Eppendorf centrifuge.” left out, “[^3 H]Myristoyl-GlyAsnAlaAlaAlaAlaArgArg eluted at 24 minutes, while [^3 H]palmitoyl-GlyAsnAlaAlaAlaAlaArgArg eluted at 30 minutes.” left out

[5] = partially purified yeast enzyme

“GFAAAARR-NH2 [Gly--Phe--Ala--Ala--Ala--Ala--Arg--Arg, Gly-Phe-Ala-Ala-Ala-Ala-Arg-Argp]” showed a Ki [1, 5] of 150 µM.

“GLAAAARR-NH2 [Gly--Leu--Ala--Ala--Ala--Ala--Arg--Arg]” showed a Ki [1, 5] of 60 µM.

“GNAAAARR-NH2 [Gly--Asn--Ala--Ala--Ala--Ala--Arg--Arg, Gly-Asn-Ala-Ala-Ala-Ala-Arg-Arg, reference compound]” was tested, and the Vmax ([1]; absolute Vmax, footnote to Table II) was 2840 pmol myristoyl peptide formed and the “Relative Vmax (%)” value ([1]; relative to Gly-Asn-Ala-Ala-Ala-Ala-Arg-Arg = 100, partially purified yeast enzyme) was 100%.

In the case of “GVAAAARR-NH2 [Gly--Val--Ala--Ala--Ala--Ala--Arg--Arg]”, the Ki [1, 5] is reported as 60 µM.

In the case of “GYAAAARR-NH2 [Gly--Tyr--Ala--Ala--Ala--Ala--Arg--Arg, Gly-Tyr-Ala-Ala-Ala-Ala-Arg-Arg]”, the Ki [1, 5] is reported as 150 µM.

B1: myristoylating enzyme from yeast (N-myristoylglycylpeptide synthetase) (Saccharomyces cerevisiae S288C) (protein)
chain: MSEEDKAKKLENLLKLLQLNNDDTSKFTQEQKKAMKDHKFWRTQPVKDFDEKVVEEGPIDKPKTPEDISDKPLPLLSSFEWCSIDVDNKKQLEDVFVLLNENYVEDRDAGFRFNYTKEFFNWALKSPGWKKDWHIGVRVKETQKLVAFISAIPVTLGVRGKQVPSVEINFLCVHKQLRSKRLTPVLIKEITRRVNKCDIWHALYTAGIVLPAPVSTCRYTHRPLNWKKLYEVDFTGLPDGHTEEDMIAENALPAKTKTAGLRKLKKEDIDQVFELFKRYQSRFELIQIFTKEEFEHNFIGEESLPLDKQVIFSYVVEQPDGKITDFFSFYSLPFTILNNTKYKDLGIGYLYYYATDADFQFKDRFDPKATKALKTRLCELIYDACILAKNANMDVFNALTSQDNTLFLDDLKFGPGDGFLNFYLFNYRAKPITGGLNPDNSNDIKRRSNVGVVML
notes: partially purified from a crude homogenate of the cultured yeast cells by fractionation with 51-70% (NH4)2 SO4; endogenous in cells; host or cells: S. cerevisiae strain JR153; ammonium sulfate cut, DEAE-Sepharose CL-6B, CoA-agarose
Molecule B1 has a Km [2] of 300 µM, a Km [3] of 700 µM and a Km [4] of 60 µM.
